Among the data in US11103510B2, “JAK1 pathway inhibitors for the treatment of cytokine-related disorders” (Incyte Corporation, priority 2018, dated 2021) are IC50 and JAK2/JAK1 values, retold here.

The IC50 is the point on the concentration scale where inhibition reaches its midpoint. High values mean a need for much substance, low ones inhibition by little substance.

Each structure is given as a SMILES string.

Assay [1] has as its target human JAK1 (a.a. 837-1142) (Homo sapiens, UniProt P23458). Put plainly: In vitro JAK kinase assay (HTRF), JAK1. It is filed as biochemical. As to conditions: 1 mM ATP.
Description: (§1) The catalytic activity of JAK1, JAK2 or JAK3 was assayed by measuring the phosphorylation of a biotinylated peptide. The phosphorylated peptide was detected by homogenous time resolved fluorescence (HTRF). […] Reactions are carried out at room temperature for 1 hour and then stopped with 20 μL 45 mM EDTA, 300 nM SA-APC, 6 nM Eu-Py20 in assay buffer (Perkin Elmer, Boston, Mass.). Binding to the Europium labeled antibody takes place for 40 minutes and HTRF signal was measured on a Fusion plate reader (Perkin Elmer, Boston, Mass.).
The target of assay [2] is human JAK2 (a.a. 828-1132) (Homo sapiens (Human), UniProt O60674). The experiment in a line: In vitro JAK kinase assay (HTRF), JAK2, for JAK2/JAK1 ratio. The class given is biochemical. Particulars: IC50 ratio, 1 mM ATP. (In general: In TR-FRET formats the signal depends on donor and acceptor labels being close together.)
Sequence of human JAK2 (a.a. 828-1132) (O60674 828-1132): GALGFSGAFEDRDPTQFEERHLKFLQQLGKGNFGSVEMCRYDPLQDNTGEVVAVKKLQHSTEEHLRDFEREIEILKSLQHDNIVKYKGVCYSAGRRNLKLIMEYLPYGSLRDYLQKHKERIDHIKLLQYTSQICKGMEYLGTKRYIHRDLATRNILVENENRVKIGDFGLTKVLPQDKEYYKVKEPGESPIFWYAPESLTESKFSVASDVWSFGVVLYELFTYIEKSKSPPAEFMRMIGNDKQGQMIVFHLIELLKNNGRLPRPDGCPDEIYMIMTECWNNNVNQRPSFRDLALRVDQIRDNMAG
Description: as §1

Consider `C[C@@H](CO)NCc1cc(OC2CCN([C@H]3C[C@](CC#N)(n4cc(-c5ncnc6[nH]ccc56)cn4)C3)CC2)nc(C(F)(F)F)c1` [Compound 23, {trans-3-(4-{[4-({[(1S)-2-hydroxy-1-methylethyl]amino}methyl)-6-(trifluoromethyl)pyridin-2-yl]oxy}piperidin-1-yl)-1-[4-(7H-pyrrolo[2,3-d]pyrimidin-4-yl)-1H-pyrazol-1-yl]cyclobutyl}acetonitrile], for which, in assay [1], the IC50 is < 10 nM. Also, in assay [2], the JAK2/JAK1 is given as >10.
For `N#CCC(CN1CCN(C(=O)c2ccc(C#N)cc2F)CC1)n1cc(-c2ncnc3[nH]ccc23)cn1` (stereo not drawn) [Compound 8, 4-[(4-{3-cyano-2-[4-(7H-pyrrolo[2,3-d]pyrimidin-4-yl)-1H-pyrazol-1-yl]propyl}piperazin-1-yl)carbonyl]-3-fluorobenzonitrile] the same measures were < 10 nM and >10.
The matching figures for `C[C@H](O)CNCc1cc(OC2CCN([C@H]3C[C@](CC#N)(n4cc(-c5ncnc6[nH]ccc56)cn4)C3)CC2)nc(C(F)(F)F)c1` [Compound 25, {trans-3-(4-{[4-({[(2S)-2-hydroxypropyl]amino}methyl)-6-(trifluoromethyl)pyridin-2-yl]oxy}piperidin-1-yl)-1-[4-(7H-pyrrolo[2,3-d]pyrimidin-4-yl)-1H-pyrazol-1-yl]cyclobutyl}acetonitrile]: < 10 nM and >10.
`N#CCC1(n2cc(-c3ncnc4[nH]ccc34)cn2)CN([C@H]2CC[C@@H](Oc3cc(CCO)nc(C(F)(F)F)n3)CC2)C1` [Compound 18, {1-(cis-4-{[6-(2-hydroxyethyl)-2-(trifluoromethyl)pyrimidin-4-yl]oxy}cyclohexyl)-3-[4-(7H-pyrrolo[2,3-d]pyrimidin-4-yl)-1H-pyrazol-1-yl]azetidin-3-yl}acetonitrile]: the concentration for half-maximal inhibition (IC50) in assay [1] is < 10 nM. The JAK2/JAK1 in assay [2] is >10.
For `N#CCC(C1CCN(c2nc3cccnc3o2)C1)n1cc(-c2ncnc3[nH]ccc23)cn1` (stereo not drawn) [Compound 7, 3-(1-[1,3]oxazolo[5,4-b]pyridin-2-ylpyrrolidin-3-yl)-3-[4-(7H-pyrrolo[2,3-d]pyrimidin-4-yl)-1H-pyrazol-1-yl]propanenitrile] the same measures were < 10 nM and >10.
In the case of `C[C@@H](O)c1nc2cnc3ccsc3c2n1[C@H]1CC[C@H](CC#N)OC1` [Compound 5, ((2R,5S)-5-{2-[(1R)-1-hydroxyethyl]-1H-imidazo[4,5-d]thieno[3,2-b]pyridin-1-yl}tetrahydro-2H-pyran-2-yl)acetonitrile], the IC50 in assay [1] is < 100 nM. In assay [2], the JAK2/JAK1 is recorded as >10.
Turning to `N#CC[C@]1(n2cc(-c3ncnc4[nH]ccc34)cn2)C[C@H](N2CCN(C(=O)c3ccnc(C(F)(F)F)n3)CC2)C1` [Compound 10, [trans-1-[4-(7H-pyrrolo[2,3-d]pyrimidin-4-yl)-1H-pyrazol-1-yl]-3-(4-{[2-(trifluoromethyl)pyrimidin-4-yl]carbonyl}piperazin-1-yl)cyclobutyl]acetonitrile], the half-maximal inhibitory concentration (IC50) in assay [1] is < 10 nM. Moreover, the JAK2/JAK1 in assay [2] is >10.
In the case of `CC(C)(O)c1cc(O[C@H]2CC[C@@H](N3CC(CC#N)(n4cc(-c5ncnc6[nH]ccc56)cn4)C3)CC2)nc(C(F)(F)F)c1` [Compound 20, {1-(cis-4-{[4-(1-hydroxy-1-methylethyl)-6-(trifluoromethyl)pyridin-2-yl]oxy}cyclohexyl)-3-[4-(7H-pyrrolo[2,3-d]pyrimidin-4-yl)-1H-pyrazol-1-yl]azetidin-3-yl}acetonitrile], in assay [1], the IC50 is < 10 nM. In addition, in assay [2], the JAK2/JAK1 is >10.
For `N#CC[C@]1(n2cc(-c3ncnc4[nH]ccc34)cn2)C[C@H](N2CCC(Oc3cc(CN4CC(O)C4)cc(C(F)(F)F)n3)CC2)C1` [Compound 11, {trans-3-(4-{[4-[(3-hydroxyazetidin-1-yl)methyl]-6-(trifluoromethyl)pyridin-2-yl]oxy}piperidin-1-yl)-1-[4-(7H-pyrrolo[2,3-d]pyrimidin-4-yl)-1H-pyrazol-1-yl]cyclobutyl}acetonitrile] the same measures were < 10 nM and >10.
In the case of `N#CCC1(n2cc(-c3ncnc4[nH]ccc34)cn2)CN([C@H]2CC[C@@H](Oc3cc(CN4CC[C@@H](O)C4)cc(C(F)(F)F)n3)CC2)C1` [Compound 21, {1-(cis-4-{[4-{[(3R)-3-hydroxypyrrolidin-1-yl]methyl}-6-(trifluoromethyl)pyridin-2-yl]oxy}cyclohexyl)-3-[4-(7H-pyrrolo[2,3-d]pyrimidin-4-yl)-1H-pyrazol-1-yl]azetidin-3-yl}acetonitrile], the half-maximal inhibitory concentration (IC50) in assay [1] is < 10 nM. The JAK2/JAK1 in assay [2] is listed as >10.
Consider `N#CCC(C1CCN(c2cccc(Cl)n2)C1)n1cc(-c2ncnc3[nH]ccc23)cn1` (single isomer, unassigned) [Compound 6, 3-[1-(6-chloropyridin-2-yl)pyrrolidin-3-yl]-3-[4-(7H-pyrrolo[2,3-d]pyrimidin-4-yl)-1H-pyrazol-1-yl]propanenitrile], for which the IC50 in assay [1] was < 10 nM. For the same compound, the JAK2/JAK1 in assay [2] was >10.
The matching figures for `N#CCC(CN1CCN(C(=O)c2ccc(C#N)cc2F)CC1)n1ccc(-c2ncnc3[nH]ccc23)c1` (stereo not drawn) [Compound 9, 4-[(4-{3-cyano-2-[3-(7H-pyrrolo[2,3-d]pyrimidin-4-yl)-1H-pyrrol-1-yl]propyl}piperazin-1-yl)carbonyl]-3-fluorobenzonitrile]: < 10 nM and >10.
On to `N#CCC1(n2cc(-c3ncnc4[nH]ccc34)cn2)CN(C2CCN(C(=O)c3ccnc(C(F)(F)F)n3)CC2)C1` [Compound 3, [3-[4-(7H-pyrrolo[2,3-d]pyrimidin-4-yl)-1H-pyrazol-1-yl]-1-(1-{[2-(trifluoromethyl)pyrimidin-4-yl]carbonyl}piperidin-4-yl)azetidin-3-yl]acetonitrile], for which, in assay [1], the half-maximal inhibitory concentration (IC50) is < 10 nM. For the same compound, the JAK2/JAK1 in assay [2] was >10.
For `N#CC[C@]1(n2cc(-c3ncnc4[nH]ccc34)cn2)C[C@H](N2CCC(Oc3cc(CN4CCC[C@H]4CO)cc(C(F)(F)F)n3)CC2)C1` [Compound 12, {trans-3-(4-{[4-{[(2S)-2-(hydroxymethyl)pyrrolidin-1-yl]methyl}-6-(trifluoromethyl)pyridin-2-yl]oxy}piperidin-1-yl)-1-[4-(7H-pyrrolo[2,3-d]pyrimidin-4-yl)-1H-pyrazol-1-yl]cyclobutyl}acetonitrile] the same measures were < 10 nM and >10.
With `C[C@H](NC(=O)c1cc(F)c(N2CC(CC#N)(n3cc(-c4ncnc5[nH]ccc45)cn3)C2)cc1F)C(F)(F)F` [Compound 16, 4-{3-(cyanomethyl)-3-[4-(7H-pyrrolo[2,3-d]pyrimidin-4-yl)-1H-pyrazol-1-yl]azetidin-1-yl}-2,5-difluoro-N-[(1S)-2,2,2-trifluoro-1-methylethyl]benzamide], the 50% inhibitory concentration (IC50) in assay [1] is < 10 nM. Besides, the JAK2/JAK1 in assay [2] is given as >10.
The matching figures for `N#CC[C@]1(n2cc(-c3ncnc4[nH]ccc34)cn2)C[C@H](N2CCC(Oc3cc(CN4CCC[C@@H]4CO)cc(C(F)(F)F)n3)CC2)C1` [Compound 13, {trans-3-(4-{[4-{[(2R)-2-(hydroxymethyl)pyrrolidin-1-yl]methyl}-6-(trifluoromethyl)pyridin-2-yl]oxy}piperidin-1-yl)-1-[4-(7H-pyrrolo[2,3-d]pyrimidin-4-yl)-1H-pyrazol-1-yl]cyclobutyl}acetonitrile]: < 10 nM and >10.
Take `N#CCC1(n2cc(-c3ncnc4[nH]ccc34)cn2)CN([C@H]2CC[C@@H](Oc3cc(CN4CC[C@H](O)C4)cc(C(F)(F)F)n3)CC2)C1` [Compound 22, {1-(cis-4-{[4-{[(3S)-3-hydroxypyrrolidin-1-yl]methyl}-6-(trifluoromethyl)pyridin-2-yl]oxy}cyclohexyl)-3-[4-(7H-pyrrolo[2,3-d]pyrimidin-4-yl)-1H-pyrazol-1-yl]azetidin-3-yl}acetonitrile]: the IC50 in assay [1] was < 10 nM. The JAK2/JAK1 in assay [2] was >10.
As to `N#CCC1(n2cc(-c3ncnc4[nH]ccc34)cn2)CN(C2CCN(C(=O)Nc3ccc(F)cc3C(F)(F)F)CC2)C1` [Compound 2, 4-{3-(Cyanomethyl)-3-[4-(7H-pyrrolo[2,3-d]pyrimidin-4-yl)-1H-pyrazol-1-yl]azetidin-1-yl}-N-[4-fluoro-2-(trifluoromethyl)phenyl]piperidine-1-carboxamide], the 50% inhibitory concentration (IC50) in assay [1] is < 10 nM. Further, the JAK2/JAK1 in assay [2] is listed as >10.
The matching figures for `C[C@@H](O)CNCc1cc(OC2CCN([C@H]3C[C@](CC#N)(n4cc(-c5ncnc6[nH]ccc56)cn4)C3)CC2)nc(C(F)(F)F)c1` [Compound 24, {trans-3-(4-{[4-({[(2R)-2-hydroxypropyl]amino}methyl)-6-(trifluoromethyl)pyridin-2-yl]oxy}piperidin-1-yl)-1-[4-(7H-pyrrolo[2,3-d]pyrimidin-4-yl)-1H-pyrazol-1-yl]cyclobutyl}acetonitrile]: < 10 nM and >10.
The matching figures for `CCNCc1cc(O[C@H]2CC[C@@H](N3CC(CC#N)(n4cc(-c5ncnc6[nH]ccc56)cn4)C3)CC2)nc(C(F)(F)F)c1` [Compound 19, {1-(cis-4-{[4-[(ethylamino)methyl]-6-(trifluoromethyl)pyridin-2-yl]oxy}cyclohexyl)-3-[4-(7H-pyrrolo[2,3-d]pyrimidin-4-yl)-1H-pyrazol-1-yl]azetidin-3-yl}acetonitrile]: < 10 nM and >10.
The matching figures for `N#CC[C@]1(n2cc(-c3ncnc4[nH]ccc34)cn2)C[C@H](N2CCC(Oc3cc(CCO)cc(C(F)(F)F)n3)CC2)C1` [Compound 26, {trans-3-(4-{[4-(2-hydroxyethyl)-6-(trifluoromethyl)pyridin-2-yl]oxy}piperidin-1-yl)-1-[4-(7H-pyrrolo[2,3-d]pyrimidin-4-yl)-1H-pyrazol-1-yl]cyclobutyl}acetonitrile]: < 10 nM and >10.
